This note sets out measurements from patent US12310969B2, “Antithrombotic compositions and methods for using same” (UNIVERSITY OF NORTH TEXAS, priority 2021, dated 2025).

In one test the test system is zebrafish larvae. Put plainly: Laser-induced venous thrombosis, time to occlusion (TTO) of the caudal vein. The test is classed as in vivo. The following applies: 5 dpf larvae, 2 hours. As for the experimental part: (§1) UNC6852 (MedChem Express, Monmouth Junction, NJ), in 10% DMSO in saline were prepared at four different concentrations (0.075 mM, 0.15 mM, 0.3 mM and 0.6 mM). Eight nl of each of these solutions was injected into the 5 dpf larvae and incubated for 2 hours. For controls, 10% DMSO in saline was injected. For adult fish injections, 5 μl of 0.6 mM UNC6852 was injected intravenously and incubated for 6 hours.
For laser-induced venous thrombosis, 5 dpf larvae were transferred into a 1.5 ml Eppendorf tube containing 0.5 ml E3 medium followed by the addition of 10 μl of 10 mM MS222. After 2 minutes of anesthesia, 0.5 ml of 1.6% low melting agarose at 37° C. was added to the Eppendorf tube, and the contents were mixed gently by pipetting up and down using a transfer pipette. […] The slide with the larvae was focused with a 20× objective of the Nikon OPTIPHOT™ fluorescence microscope. The pulsed nitrogen laser with a wavelength of 445 nm, routed through the coumarin-440 dye (Micro Point Laser, Stanford Research Systems Inc., Sunnyvale, CA), was delivered at 10 hits per cycle through the fluorescence port to hit the mid-region in the caudal vein located in the 5th somite posterior to the anal pore.^22 TTO of the vessel was measured as the time taken to occlude the vessel from the time the laser hits the vessel until the vessel completely occludes.

Another test relates to tfpia mRNA. The test is described as follows: qRT-PCR of tfpia gene expression in liver and spleen of adult zebrafish. The following applies: adult fish, 5 μl of 0.6 mM injected intravenously, 6 hours post-injection, vs wild-type control. The test is classed as in vivo. As for the experimental part: as §1
Adult zebrafish were first anesthetized using 1 mM Tricaine in E3 medium. After 2 minutes, once the zebrafish flips on its side, it was removed from the medium, and an incision was made in the ventral surface from the anal pore up to the gills using a pair of scissors. The visible liver and spleen were retrieved using a pair of forceps. […]
To 1 μl of the liver and spleen RNA (1 μg/μl), 4 μl of QSCRIPT™ (gScript™) cDNA SUPERMIX™ (Quanta Bio, Beverly, MA) and 15 μl of nuclease-free water were added. […] The ΔCt values for WT samples were calculated as a difference between Ct values of β-actin and tfpia. The average ΔCt value for WT was then calculated. […] Similarly, in the knockdown samples, from each ΔCt value, the average ΔCt value of the WT was subtracted, and the resulting ΔΔCt value was calculated, followed by the calculation of fold change.
In general terms: In qPCR the cycle at which signal appears reflects the starting amount.

As for `Cc1ncsc1-c1ccc(CNC(=O)[C@@H]2C[C@@H](O)CN2C(=O)[C@@H](NC(=O)CCCNC(=O)c2ccc(-c3cnc(NCc4ccco4)n4cnnc34)cc2)C(C)(C)C)cc1` [UNC6852], in the test with zebrafish larvae (8 nl injected intravenously at 0.075, 0.15, 0.3 and 0.6 mM, compared to control larvae (10% DMSO in saline)), the “time to occlusion (TTO) of the caudal vein after laser injury” value is “dose-dependent prolongation of TTO”. For the same compound, the “concentration giving maximal prolongation of TTO” value with zebrafish larvae (8 nl injected intravenously, 4 concentrations tested (0.075-0.6 mM)) worked out at 0.6 mM. Besides, the “tfpia mRNA levels (fold change of tfpia gene expression in liver and spleen)” value in the test on tfpia mRNA was “increased tfpia mRNA levels”.
